Reference: PMC12116762, “Topobexin targets the Topoisomerase II ATPase domain for beta isoform-selective inhibition and anthracycline cardioprotection” (Nature Communications, 2025)
Values joined by “and” are separate entries in the source; they are usually repeats but may differ in a detail not shown here. Identical values can stand only once.

What was measured:
caspase 8 = experiment: Caspase 8 activity in NVCM (Caspase-Glo); format: cell-based, rat; settings: for Csp8 activity: independent replicates
Procedure: (§1) Caspase activity was assessed on NVCM cells using luciferase-based kits for caspase 3/7, 8 and 9 (Caspase-Glo® 3/7, 8 and 9 assay systems; Promega) according to the manufacturer’s instructions on 384-well plates (Greiner Bio-One). Luminescence signal was measured using Tecan M200 multifunctional plate-reader. All measured groups were corrected for total protein concentration (BCA assay) and were expressed as fold change of the signal over corresponding untreated control group. Each presented data point was obtained from distinct sample. Statistical significance was determined using ratio paired t-test, two-tailed.

caspase 9 = experiment: Caspase 9 activity in NVCM (Caspase-Glo); format: cell-based, rat; settings: for Csp9 activity: independent replicates
Procedure: as §1

γH2AX [1] = experiment: γH2AX levels in HL-60 cells (Western blotting); format: cell-based, human; settings: for γH2AX level, mean of independent replicates: Suppl.Fig.8d
γH2AX [2] = experiment: γH2AX levels in NVCM (Western blotting); format: cell-based, rat; design: γH2AX level, mean: scale not given here; settings: for γH2AX level: independent replicates
Procedure: (§2) TOP2B and γH2AX levels in NVCM were determined as follows. After incubation, 4 × 10^5 rat neonatal cardiomyocytes were lysed with 75 µL of 2% SDS in 0.1 M Tris (pH 7.4) and boiled at 95 °C for 5 min. The protein content of each sample was determined by the BCA method and 10 μg of total protein were loaded onto a polyacrylamide gel (7.5% for TOP2B, 12% for γH2AX, Bio-Rad TGX stain-free gels). After approximately 75 min of electrophoresis (150 V, Bio-Rad Mini-PROTEAN Tetra Cell), the gels were transblotted onto nitrocellulose membranes using a semi-dry method in Transblot Turbo (Bio-Rad, USA). The next day, the membranes were blocked for 1 h in 5% skimmed milk powder in 0.05% TBS-T at room temperature (RT). For TOP2 analysis, membranes were incubated with rabbit anti-TOP2A/B (1:2,000, ab109524, Abcam, UK) in 1% BSA in PBS for 1 h at RT, washed 6 times for 5 min in 0.05% TBS-T and then incubated with HRP-labeled F(ab’)2 goat anti-rabbit IgG (1:10,000, ab6112, Abcam, UK) in 0.05% TBS-T for 1 h RT and washed again (6 × 5 min in 0.05% TBS-T). For γH2AX analysis, membranes were incubated with mouse anti-γH2AX (1:5,000; ab26350, Abcam, UK) in 5% BSA in PBS for 1 h at RT, washed with 0.05% PBS-T for 6 × 5 min, incubated with HRP-conjugated anti-mouse IgG (1:40,000; A9044 Sigma Aldrich, USA) in 5% BSA in PBS for 1 h RT and finally washed with 0.05% PBS-T for 6 times 5 min. Target proteins were visualized using a chemiluminescent detection substrate (Clarity Western ECL Substrate, Bio-Rad, USA) and a Gel Doc EZ with Image Lab software (Bio-Rad, USA). Full, uncropped images of all blots present in the manuscript figures are included in the source data file.
(§3) Densitometric quantification was performed using Image Lab software (Bio-Rad). Stain-free technology was used to visualize the total protein on the gel and normalize the total protein amount in each line. Each presented data point was obtained from distinct sample.

TOP2B = target: T1, TOP2B (Rattus norvegicus, UniProt A0A8I5Y7L4); experiment: TOP2B protein levels in NVCM (Western blotting); format: cell-based; settings: for TOP2B protein level: independent replicates
T1 construct: endogenous in cells; host or cells: primary neonatal Wistar rat ventricular cardiomyocytes (NVCM)
Procedure: as §2, §3

[3] = target: T2, TOP2A-DNA covalent complex (Homo sapiens, UniProt P11388); experiment: RADAR assay, etoposide-induced TOP2A-DNA covalent complex in HEK293F cells; format: cell-based; settings: for TOP2A spot intensity: independent replicates
T2 construct: endogenous in cells; host or cells: HEK293F
Procedure: HEK293F cells were plated at 3 × 10^5 cells per well and grown overnight. […] Upon removal of media, cells in each well were immediately lysed with 750 µL DNAzol (Molecular Research Center, Inc.) and the DNA was precipitated by addition of 375 µL of 100% ethanol. This step was then repeated to eliminate protein aggregates. Precipitate from each sample was pelleted via centrifugation at 4 °C and max speed for 5 min. The pellets were washed twice with buffer containing 20 mM Tris pH 7.5, 1 mM EDTA pH 8.0, 50 mM NaCl, 50% EtOH, and at the end of each wash, centrifugation at 4000 × g for 2 min was repeated to isolate the DNA pellets. The pellets were washed in 75% EtOH and then collected by centrifugation at 4 °C and max speed for 5 min. The supernatant was removed via pipetting, and the remaining pellets were air dried for 5 min before 50 µL 8 mM NaOH and 0.1% Tween-20 was added to each pellet. Once no visible precipitate remained, each mixture was supplemented with 5 µL of Benzonase buffer containing 500 mM Tris pH 8.0, 10 mM MgCl2, 1/1000 Roche complete protease inhibitor cocktail (Millipore Sigma) and 40 units Benzonase (Millipore Sigma) followed by 30 to 60 min incubation at 37 °C until the pellets were fully dissolved. The DNA content from each sample was quantified on a nanodrop, and 10 µg of DNA was diluted to a final volume of 200 µL in 8 mM NaOH and 0.1% Tween. The samples were applied over the Whatman Minifold I dot blot apparatus (Cytiva) and collected on a PVDF membrane (Thermo Fisher Scientific). The membrane was washed three times with 8 mM NaOH and 0.1% Tween-20 solution prior to removal and blocking with the same wash solution containing 1 mg/mL BSA. Western blotting was carried out on an iBind (Thermo Fisher Scientific) and TOP2 proteins were detected using isoform-specific antibody against full length TOP2A (1:250 dilution; HT2A21, Inspiralis) and TOP2B (1:500 dilution; 611493, BD Biosciences) and visualized with anti-rabbit (1:1000 dilution; 926-68071, LI-COR Bio) and anti-mouse (1:1000 dilution; 926-32210, LI-COR Bio) secondary antibodies in iBind running buffer. The blots were imaged on a LI-COR Odyssey Fc and analysed using ImageStudio. Each presented data point was obtained from distinct sample.

T1 sequence (A0A8I5Y7L4 1-1614): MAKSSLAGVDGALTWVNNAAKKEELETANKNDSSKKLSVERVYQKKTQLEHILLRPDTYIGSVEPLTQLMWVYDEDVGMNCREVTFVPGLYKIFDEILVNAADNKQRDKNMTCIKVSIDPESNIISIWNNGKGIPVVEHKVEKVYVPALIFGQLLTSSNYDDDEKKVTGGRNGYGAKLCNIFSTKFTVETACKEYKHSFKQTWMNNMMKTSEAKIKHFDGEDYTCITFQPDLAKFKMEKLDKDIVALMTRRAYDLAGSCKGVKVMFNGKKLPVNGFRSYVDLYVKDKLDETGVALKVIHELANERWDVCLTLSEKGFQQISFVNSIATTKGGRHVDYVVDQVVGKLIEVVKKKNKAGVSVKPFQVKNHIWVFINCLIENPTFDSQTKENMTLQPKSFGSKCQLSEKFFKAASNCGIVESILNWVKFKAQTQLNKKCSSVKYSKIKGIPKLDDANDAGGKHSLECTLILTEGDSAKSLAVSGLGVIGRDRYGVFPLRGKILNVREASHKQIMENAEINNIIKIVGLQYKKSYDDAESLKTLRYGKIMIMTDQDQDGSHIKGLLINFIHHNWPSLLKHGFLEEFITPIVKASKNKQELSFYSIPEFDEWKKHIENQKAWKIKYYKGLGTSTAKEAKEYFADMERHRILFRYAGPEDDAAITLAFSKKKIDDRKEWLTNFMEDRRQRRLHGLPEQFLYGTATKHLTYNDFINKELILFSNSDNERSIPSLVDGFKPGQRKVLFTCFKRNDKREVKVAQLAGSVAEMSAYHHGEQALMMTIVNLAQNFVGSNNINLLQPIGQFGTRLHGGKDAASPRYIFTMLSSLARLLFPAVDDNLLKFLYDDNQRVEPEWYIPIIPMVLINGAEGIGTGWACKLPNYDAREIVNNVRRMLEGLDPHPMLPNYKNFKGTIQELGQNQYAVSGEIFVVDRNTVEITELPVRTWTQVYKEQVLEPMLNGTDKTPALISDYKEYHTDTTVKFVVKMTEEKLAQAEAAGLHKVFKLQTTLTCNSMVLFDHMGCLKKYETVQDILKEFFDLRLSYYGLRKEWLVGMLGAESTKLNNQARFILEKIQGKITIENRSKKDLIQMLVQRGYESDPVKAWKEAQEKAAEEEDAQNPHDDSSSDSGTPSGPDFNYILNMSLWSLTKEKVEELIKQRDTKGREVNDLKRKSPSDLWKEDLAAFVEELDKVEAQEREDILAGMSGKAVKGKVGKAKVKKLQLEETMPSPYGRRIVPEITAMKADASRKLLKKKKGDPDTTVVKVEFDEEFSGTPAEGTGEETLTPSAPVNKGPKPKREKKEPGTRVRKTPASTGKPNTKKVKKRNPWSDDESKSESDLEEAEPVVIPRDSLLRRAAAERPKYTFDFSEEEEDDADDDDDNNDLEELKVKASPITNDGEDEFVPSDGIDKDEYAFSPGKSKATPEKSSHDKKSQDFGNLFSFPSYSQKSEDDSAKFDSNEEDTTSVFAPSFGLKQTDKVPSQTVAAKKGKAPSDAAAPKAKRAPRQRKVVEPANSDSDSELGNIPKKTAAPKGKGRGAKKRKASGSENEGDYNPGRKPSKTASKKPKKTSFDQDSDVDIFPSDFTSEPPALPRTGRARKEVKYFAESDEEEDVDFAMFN
T2 sequence (P11388 whole entry, one chain of several): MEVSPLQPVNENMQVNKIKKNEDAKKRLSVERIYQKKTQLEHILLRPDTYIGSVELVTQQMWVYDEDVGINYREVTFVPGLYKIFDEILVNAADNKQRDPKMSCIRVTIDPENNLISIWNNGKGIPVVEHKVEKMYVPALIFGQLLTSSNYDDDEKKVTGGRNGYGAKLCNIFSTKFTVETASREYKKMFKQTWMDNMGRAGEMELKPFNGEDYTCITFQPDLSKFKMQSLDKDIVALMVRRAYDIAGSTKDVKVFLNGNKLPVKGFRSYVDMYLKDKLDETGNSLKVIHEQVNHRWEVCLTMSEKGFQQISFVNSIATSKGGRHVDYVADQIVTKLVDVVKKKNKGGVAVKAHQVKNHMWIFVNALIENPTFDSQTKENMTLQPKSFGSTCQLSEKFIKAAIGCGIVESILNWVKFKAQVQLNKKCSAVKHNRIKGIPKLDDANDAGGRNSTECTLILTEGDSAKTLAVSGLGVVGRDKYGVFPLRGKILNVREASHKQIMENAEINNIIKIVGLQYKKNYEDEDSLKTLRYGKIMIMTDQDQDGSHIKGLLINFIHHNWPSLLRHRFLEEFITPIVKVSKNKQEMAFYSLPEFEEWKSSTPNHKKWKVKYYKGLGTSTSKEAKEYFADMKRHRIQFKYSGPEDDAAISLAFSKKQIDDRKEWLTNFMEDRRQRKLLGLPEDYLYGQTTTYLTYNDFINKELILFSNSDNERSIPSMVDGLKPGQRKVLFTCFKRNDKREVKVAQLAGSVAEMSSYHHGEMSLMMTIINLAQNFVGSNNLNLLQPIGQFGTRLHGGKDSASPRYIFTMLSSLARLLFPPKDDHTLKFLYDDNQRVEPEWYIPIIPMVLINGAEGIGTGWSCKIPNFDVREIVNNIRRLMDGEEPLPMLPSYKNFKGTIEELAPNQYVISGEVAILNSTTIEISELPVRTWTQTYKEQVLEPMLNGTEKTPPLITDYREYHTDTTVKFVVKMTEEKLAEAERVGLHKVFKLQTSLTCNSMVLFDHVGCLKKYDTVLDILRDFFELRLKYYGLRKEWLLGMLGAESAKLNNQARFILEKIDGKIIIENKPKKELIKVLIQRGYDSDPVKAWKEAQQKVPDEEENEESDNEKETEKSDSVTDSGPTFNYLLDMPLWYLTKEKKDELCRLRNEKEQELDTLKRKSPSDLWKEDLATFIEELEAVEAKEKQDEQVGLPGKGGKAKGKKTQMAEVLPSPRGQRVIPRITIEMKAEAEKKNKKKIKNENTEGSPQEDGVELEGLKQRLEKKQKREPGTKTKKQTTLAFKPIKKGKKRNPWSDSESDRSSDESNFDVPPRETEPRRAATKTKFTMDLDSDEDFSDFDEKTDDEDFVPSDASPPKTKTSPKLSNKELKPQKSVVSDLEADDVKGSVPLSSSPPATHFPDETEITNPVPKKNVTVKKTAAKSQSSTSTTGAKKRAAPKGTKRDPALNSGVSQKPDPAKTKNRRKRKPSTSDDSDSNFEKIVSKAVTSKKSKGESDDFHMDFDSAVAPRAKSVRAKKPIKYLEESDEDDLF

COc1cccc2c1C(=O)c1c(O)c3c(c(O)c1C2=O)C[C@@](O)(C(C)=O)C[C@@H]3O[C@H]1C[C@H](N)[C@H](O)[C@H](C)O1 [DAU, daunorubicin, reference compound]
Csp8 activity, mean (caspase 8; DAU 1.2 μM alone): 2.2056 fold change | Csp8 activity (caspase 8; DAU 1.2 μM alone): 1.777 fold change and 1.7129 fold change and 3.182 fold change and 1.952 fold change and 2.3428 fold change and 2.2669 fold change | Csp9 activity, mean (caspase 9; DAU 1.2 μM alone): 2.579 fold change | Csp9 activity (caspase 9; DAU 1.2 μM alone): 1.742 fold change and 1.782 fold change and 3.523 fold change and 1.858 fold change and 4.0027 fold change and 2.565 fold change | γH2AX level, mean of independent replicates (γH2AX [1]; DAU 1.2 µM alone (mean = 100)): 100 | γH2AX level, mean (γH2AX [2]; DAU 1.2 μM alone): 100 | γH2AX level (γH2AX [2]; DAU 1.2 μM alone): 113.699 and 89.6209 and 76.0928 and 120.587

CCCc1cc(=O)oc2c(C(=O)N3CCCc4ccccc43)c(OCCN3CCN(C)CC3)ccc12 [topobexin (9)]
Csp8 activity, mean (caspase 8; Cmpd 9 10 μM + DAU 1.2 μM): 1.776 fold change | Csp8 activity (caspase 8; Cmpd 9 10 μM + DAU 1.2 μM): 1.323 fold change and 1.259 fold change and 2.008 fold change and 1.4395 fold change and 2.674 fold change and 1.95 fold change | Csp8 activity, mean (caspase 8; Cmpd 9 10 μM alone): 1.035 fold change | Csp8 activity (caspase 8; Cmpd 9 10 μM alone): 0.9315 fold change and 1.0306 fold change and 0.962 fold change and 0.8268 fold change and 1.054 fold change and 1.403 fold change | Csp9 activity, mean (caspase 9; Cmpd 9 10 μM + DAU 1.2 μM): 1.834 fold change | Csp9 activity (caspase 9; Cmpd 9 10 μM + DAU 1.2 μM): 1.395 fold change and 1.389 fold change and 2.498 fold change and 1.26 fold change and 2.708 fold change and 1.753 fold change | Csp9 activity, mean (caspase 9; Cmpd 9 10 μM alone): 0.9606 fold change | Csp9 activity (caspase 9; Cmpd 9 10 μM alone): 0.8436 fold change and 1.03 fold change and 0.994 fold change and 0.6408 fold change and 0.974 fold change and 1.282 fold change | concentration with statistically significant decrease in γH2AX levels (γH2AX [1]; HL-60, DAU, highest concentration tested): 10 µM | γH2AX level, mean of independent replicates (γH2AX [1]; compound 0.1 µM + DAU 1.2 µM, DAU mean = 100): 85.0292 | γH2AX level, mean of independent replicates (γH2AX [1]; compound 0.3 µM + DAU 1.2 µM, DAU mean = 100): 71.0118 | γH2AX level, mean of independent replicates (γH2AX [1]; compound 1 µM + DAU 1.2 µM, DAU mean = 100): 59.3884 | γH2AX level, mean of independent replicates (γH2AX [1]; compound 3 µM + DAU 1.2 µM, DAU mean = 100): 59.6746 | γH2AX level, mean of independent replicates (γH2AX [1]; compound 10 µM + DAU 1.2 µM, DAU mean = 100): 31.6085 | γH2AX level, mean of independent replicates (γH2AX [1]; compound alone 0.1 µM, DAU mean = 100): 21.4098 | γH2AX level, mean of independent replicates (γH2AX [1]; compound alone 0.3 µM, DAU mean = 100): 25.2396 | γH2AX level, mean of independent replicates (γH2AX [1]; compound alone 1 µM, DAU mean = 100): 23.449 | γH2AX level, mean of independent replicates (γH2AX [1]; compound alone 3 µM, DAU mean = 100): 19.8181 | γH2AX level, mean of independent replicates (γH2AX [1]; compound alone 10 µM, DAU mean = 100): 24.2375 | γH2AX level, mean (γH2AX [2]; 0.1 µM + DAU 1.2 µM): 39.0271 | γH2AX level (γH2AX [2]; 0.1 µM + DAU 1.2 µM): 36.8376 and 42.68 and 24.34 and 52.2506 | γH2AX level, mean (γH2AX [2]; 0.1 µM alone): 2.32 | γH2AX level (γH2AX [2]; 0.1 µM alone, DAU mean 100): 5.77 and 0.9222 and 2.18 and 0.4088 | γH2AX level, mean (γH2AX [2]; 1 µM + DAU 1.2 µM): 7.0222 | γH2AX level (γH2AX [2]; 1 µM + DAU 1.2 µM): 17.1283 and 3.616 and 2.74 and 4.605 | γH2AX level, mean (γH2AX [2]; 1 µM alone): 3.099 | γH2AX level (γH2AX [2]; 1 µM alone): 8.242 and 0.9663 and 2.352 and 0.8374 | γH2AX level, mean (γH2AX [2]; 10 µM + DAU 1.2 µM): 3.08 | γH2AX level (γH2AX [2]; 10 µM + DAU 1.2 µM): 6.036 and 4.664 and 0.5024 and 1.119 | γH2AX level, mean (γH2AX [2]; 10 µM alone): 2.838 | γH2AX level (γH2AX [2]; 10 µM alone): 3.615 and 3.033 and 2.846 and 1.856 | lowest concentration tested preventing DAU-induced γH2AX (γH2AX [2]; NVCM): 0.1 µM | TOP2B protein levels in NVCM (TOP2B): potent and concentration-dependent depletion | TOP2B protein level, mean (TOP2B; 0.1 µM, ctr mean 100): 23.4137 | TOP2B protein level (TOP2B; 0.1 µM, ctr mean 100): 11.507 and 22.9519 and 35.7822 | TOP2B protein level, mean (TOP2B; 1 µM): 1.8687 | TOP2B protein level (TOP2B; 1 μM): 0.3883 and 3.978 and 1.24 | TOP2B protein level, mean (TOP2B; 10 µM): 0.6098 | TOP2B protein level (TOP2B; 10 µM): 0.07384 and 0.9813 and 0.7742 | TOP2A spot intensity ([3]; Cmpd 9 0.1 μM + etoposide 5 μM): 56.77 and 79.14 and 121.2 and 109.4 and 138 | TOP2A spot intensity ([3]; Cmpd 9 1 μM + etoposide 5 μM): 31.84 and 81.31 and 94.03 and 77.86 and 117.3 | TOP2A spot intensity ([3]; Cmpd 9 10 μM + etoposide 5 μM): 13.9 and 41.59 and 30.46 and 21.29 and 12.52 | TOP2A spot intensity ([3]; Cmpd 9 10 μM, etoposide 0, background subtracted): 0.2099 and 13.4 and 11.83 and 3.115 and 7.885 | concentration significantly reducing TOP2A-DNA CC ([3]; etoposide-induced, HEK293F): 10 µM
